Common to all, as to test: fluorescence light-switch
Test [1] deals with poly A poly T (DNA, duplex) AAAAAAAAAAAAAAAAAAAAA/TTTTTTTTTTTTTTTTTTTTT
Particulars: 50 mM NaCl; 5 mM Tris-HCl pH 7.0, 1% DMSO, RT; 10 μM complex, 50 μM bp DNA; emission near 600 nm.

Test [2] relates to poly AT (DNA, duplex) ATATATATATATATATATAT
Particulars: 50 mM NaCl, 10 μM complex, 50 μM bp DNA.

Test [3] concerns poly T (DNA, single strand) TTTTTTTTTTTTTTTTTTTTT
Particulars: 50 mM NaCl; 5 mM Tris-HCl pH 7.0, 1% DMSO, RT; 10 μM complex, 50 μM DNA; emission near 600 nm.

On to `CN(C)Cc1[c-]cccc1.[Pt+2].c1ccc2cc3nc4c5cccnc5c5ncccc5c4nc3cc2c1`, for which the binding result in test [1] is given as “yes”; in test [2] (5 mM Tris-HCl pH 7.0, 1% DMSO, RT, excimer emission at 599 nm), “yes”; in test [3], “yes”.
Take `CN(C)Cc1[c-]cccc1.[Pt+2].c1ccc2nc3c4cccnc4c4ncccc4c3nc2c1`: the binding entry in test [2] (5 mM Tris-HCl pH 7.0, RT, emission at 431 nm) is given as “yes”.
As to `CN(C)Cc1[c-]cccc1.[Pt+2].c1cnc2c(c1)c1nccnc1c1cccnc12`, the binding result in test [2] (5 mM Tris-HCl pH 7.0, RT, emission at 438 nm) is recorded as “yes”.

Source of the values: publication PMC8456496 (2021).
